The values that follow come from PubChem BioAssay AID686920 (Broad Institute, 2013).

The assay relates to A673 NR0B1-luciferase reporter, viability-normalised luminescence. Kind of assay: NR0B1 reporter signal reduction in A673 cells – cell-based, luciferase luminescence, cherry-pick, EWS/Fli inhibitor project, dose response (AID 686920).

In the case of `CCN1C/C(=C/c2ccc(N3CCOCC3)cc2)C(=O)/C(=C/c2ccc(N3CCOCC3)cc2)C1`, the AC35 is 5.5 µM.

For `COc1ccc(-c2cc(CNc3nc(NC(C)C)nc4cc(-c5ccccc5)sc34)on2)cc1`, the AC35 is 15.7 µM.

Consider `C[C@H]1CN([C@@H](C)CO)C(=O)c2cc(NS(=O)(=O)c3ccc(Cl)cc3)ccc2O[C@H]1CN(C)Cc1ccc(C(=O)Nc2ccccc2N)cc1`, for which the AC35 was 14.5 µM.

Take `O=c1c2ccccc2oc2ccc(C#CC3(O)CCCCC3)cc12`: the AC35 was 14.1 µM.

As for `COc1ccc(CCCNC(=O)C2Cc3c(-c4ccc5c(c4)OCO5)ccnc3O2)cc1` (stereo not drawn), the AC35 is 10.5 µM.

In the case of `COc1ccc(/C=C/C(=O)c2cc(F)ccc2OC(=O)c2ccccc2OC)cc1OC`, the AC35 is 1.59 µM.

For `CCN1/C(=C/C(C)=C/c2sc3ccccc3[n+]2CC)Sc2ccccc21`, the AC35 was 1.56 µM.

With `CC(=O)OC1CC(OC2C(O)CC(OC3C(O)CC(OC4CCC5(C)C(CCC6C5CCC5(C)C(C7=CC(=O)OC7)CCC65O)C4)OC3C)OC2C)OC(C)C1OC1OC(CO)C(O)C(O)C1O` (stereo not drawn), the AC35 is 0.0893 µM.

On to `Cc1cc(-c2nc3cc(F)ccc3s2)ccc1N`, for which the AC35 was 8.89 µM.

With `O=C1c2ccc3c4c(ccc(c24)C(=O)N1c1cccc(O)c1)C(=O)N(c1cccc(O)c1)C3=O`, the AC35 was 5.35 µM.

With `COc1ccc(C(C)(O)c2nc(-c3cccc(F)c3)cs2)cc1` (stereo not drawn), the AC35 is 8.04 µM.

In the case of `Cc1c(Cl)cccc1NC(=O)CCC(=O)N/N=C/c1ccc[nH]1`, the AC35 was 4.78 µM.

As for `Cc1ccc(/C=C2\SC(=S)N(CCCC(=O)NNC(=O)c3ccccc3O)C2=O)cc1`, the AC35 is 2.09 µM.

For the molecule `COc1ccc2nc(-c3ccc(F)cc3)sc2c1`, the AC35 is 8.38 µM.

Take `COC1C(O)C(C)OC(OC2CCC3(C)C(CCC4C3C(O)CC3(C)C(C5=CC(=O)OC5)CCC43O)C2)C1O` (stereo not drawn): the AC35 is 0.183 µM.

With `C[C@@H]1CN([C@@H](C)CO)C(=O)c2cccc(NS(=O)(=O)c3ccc(Cl)cc3)c2O[C@@H]1CN(C)Cc1ccc(C(=O)Nc2ccccc2N)cc1`, the AC35 was 5.31 µM.

With `CC12CCC(O)CC1CCC1C2CCC2(C)C(C3=CC(=O)OC3)CCC12O` (stereo not drawn), the AC35 is 0.391 µM.

Regarding `C[C@@H]1CN([C@H](C)CO)S(=O)(=O)c2ccc(C#CC3CC3)cc2O[C@@H]1CN(C)Cc1ccccc1F`, the AC35 was 30.4 µM.

On to `Nc1ccc(Oc2cccc(Oc3ccc(N)cc3)c2)cc1`, for which the AC35 was 1.15 µM.

On to `N#CC(C#N)=C1C=CC=CN1/C(=C\c1ccco1)C(=O)c1ccc(Cl)cc1`, for which the AC35 is 7.6 µM.

Take `CCOc1ccc(OCc2ccc(C(=O)NN=Cc3ccc[nH]3)cc2)cc1`: the AC35 is 0.461 µM.

As for `COc1ccc(NC(=O)c2cc3ccccc3oc2=O)cc1`, the AC35 was 2.99 µM.

With `C[C@@H]1CN([C@@H](C)CO)C(=O)Cc2cc(N(C)C)ccc2O[C@@H]1CN(C)Cc1ccccc1`, the AC35 is 7.99 µM.

For `Cc1ccc(C)c(S(=O)(=O)N2CCN(c3ncnc4sccc34)CC2)c1`, the AC35 was 3.63 µM.

As for `COc1ccc(C2c3cc4c(cc3OC(NNC(N)=O)C2C)OCO4)cc1` (stereo not drawn), the AC35 is 14 µM.

Take `C=CC[n+]1c(-c2ccc(C)cc2)csc1Nc1ccc(NC(C)=O)cc1`: the AC35 is 15.6 µM.

For the molecule `O=C(NC1CCCC1)C(c1ccccc1)n1c(CSCCOc2ccccc2)nc2ccccc21` (stereo not drawn), the AC35 was 2.19 µM.

`COc1ccc(C(=O)Nc2cccc(C(=O)N/N=C/c3ccc(OC)cc3OC)c2)cc1`: the AC35 is 31.2 µM.

As to `CCCCNC1=CC(=O)C(=O)c2ccccc21`, the AC35 is 6.17 µM.

Consider `Cc1ccc(S(=O)(=O)Nc2ccc3c(c2)C(=O)N([C@H](C)CO)C[C@H](C)[C@@H](CN(C)Cc2ccc(C(F)(F)F)cc2)OCCCC[C@H](C)O3)cc1`, for which the AC35 was 11.5 µM.

On to `COC(=O)Cc1[nH]n(-c2nc3ccccc3s2)c(=O)c1C(C)=Nc1ccc(OC)cc1`, for which the AC35 was 4.31 µM.

Take `COc1ccc(OC)c(Cc2cnc3nc(N)nc(N)c3c2C)c1`: the AC35 is 0.0922 µM.

Consider `Nc1ccc(-c2cc3ccccc3c(=O)o2)cc1`, for which the AC35 is 0.485 µM.

On to `COc1ccccc1/C=C1\SC(=S)N(CCC(=O)Nc2cc(C)on2)C1=O`, for which the AC35 was 16.8 µM.

With `COc1ccc(/C=C2\SC(=O)N(CCCC(=O)Nc3cc(Cl)ccc3C(=O)O)C2=O)cc1`, the AC35 was 0.169 µM.

Consider `O=C(c1nnsc1S(=O)c1ccc(Cl)cc1)N1CCOCC1` (stereo not drawn), for which the AC35 was 14.1 µM.

As for `C[C@@H]1CN([C@@H](C)CO)C(=O)c2cc(NS(=O)(=O)c3ccc(F)cc3)ccc2O[C@@H]1CN(C)Cc1ccc(C(=O)Nc2ccccc2N)cc1`, the AC35 is 9.48 µM.

`O=C(Nc1nc(-c2ccc(F)c(F)c2)cs1)c1ccc(OCC2CCCO2)cc1` (stereo not drawn): the AC35 was 30 µM.

For `COc1cc2oc3cc(C#Cc4ccc(N)cc4)ccc3c(=O)c2cc1OC`, the AC35 is 10.3 µM.

Regarding `OCC1OC(n2cnc3c(NCc4ccco4)ncnc32)C(O)C1O` (stereo not drawn), the AC35 was 2.81 µM.

For `COC(=O)C[C@@H]1CC[C@@H]2[C@H](COc3ccc(NC(=O)c4ccccc4)cc3C(=O)N2C)O1`, the AC35 is 53.4 µM.

Consider `C[C@H](CO)N1C[C@H](C)[C@H](CN(C)Cc2ccc(C(F)(F)F)cc2)Oc2ccc(NC(=O)CCCCCC(=O)Nc3ccccc3N)cc2CC1=O`, for which the AC35 was 6.04 µM.

`Cc1ccc(S(=O)(=O)Nc2ccc3c(c2)C(=O)N([C@@H](C)CO)C[C@H](C)[C@@H](CN(C)Cc2ccc(C(F)(F)F)cc2)OCCCC[C@@H](C)O3)cc1`: the AC35 is 10.2 µM.

On to `OCC1OC(n2ccc3c2ncn2ncnc32)C(O)C1O` (stereo not drawn), for which the AC35 is 1.01 µM.

Consider `O=C(NCc1cccnc1)C1Cc2c(-c3ccc(Cl)cc3)ccnc2O1` (stereo not drawn), for which the AC35 is 6.04 µM.

In the case of `C[C@@H]1CN([C@H](C)CO)C(=O)c2cc(NC(=O)c3ccccc3)ccc2O[C@@H](C)CCCCO[C@H]1CN(C)C(=O)Nc1cccc2ccccc12`, the AC35 is 2.07 µM.

`CCc1nc(N)nc(N)c1-c1ccc(Cl)cc1`: the AC35 was 5.12 µM.

`CN(C)CC1CCC/C(=C\c2ccc(OC(=O)c3ccc(Cl)cc3)cc2)C1=O` (stereo not drawn): the AC35 was 5.76 µM.

As to `Cc1ccc(NC(=O)CCN2CCCCC2)cc1`, the AC35 is 26.1 µM.

In the case of `C[C@H]1CN([C@@H](C)CO)C(=O)Cc2cc(NC(=O)CCCCCC(=O)Nc3ccccc3N)ccc2O[C@H]1CN(C)Cc1ccc(Cl)c(Cl)c1`, the AC35 was 4.68 µM.

Turning to `CCCN1C/C(=C/c2ccc3c(c2)OCO3)C(=O)/C(=C/c2ccc3c(c2)OCO3)C1`, the AC35 was 3.4 µM.

As to `CN1c2ccc(-c3ccc(C#N)cc3)cc2[C@H]2[C@H](CCN2S(=O)(=O)c2cccc(F)c2)[C@@H]1CO`, the AC35 is 4.64 µM.

As to `COc1ccc(NS(=O)(=O)c2cc(NC(=O)CNC(=O)c3cccc(OC)c3)ccc2C)cc1`, the AC35 is 66.3 µM.

As to `C[C@H]1CN([C@@H](C)CO)C(=O)Cc2cc(NC(=O)CCCCCC(=O)Nc3ccccc3N)ccc2O[C@H]1CN(C)Cc1ccc(C(F)(F)F)cc1`, the AC35 was 6.15 µM.

Turning to `Cc1c(Cc2ccc3c(c2)OCO3)sc(NC(=O)C(C)(C)C)c1C#N`, the AC35 was 9.84 µM.

Take `CC1OC(OC2CC(O)C3(CO)C4C(O)CC5(C)C(C6=CC(=O)OC6)CCC5(O)C4CCC3(O)C2)C(O)C(O)C1O` (stereo not drawn): the AC35 was 0.0738 µM.

Consider `COc1ccc(S(=O)(=O)N=Nc2c(O)[nH]c3ccccc23)cc1`, for which the AC35 is 34.7 µM.

As to `Cc1nc2cc(-c3ccc(Cl)cc3)nn2c(C)c1CCC(=O)NC(C)c1ccc2c(c1)OCCO2` (stereo not drawn), the AC35 is 0.847 µM.

Regarding `O=C1NC(=O)N(Cc2ccccc2)C(=O)/C1=C\C=C\c1ccco1`, the AC35 was 10.4 µM.

Regarding `COc1ccc(C2=Nn3c(nnc3-c3ccccc3F)SC2)cc1OC1CCOC1` (stereo not drawn), the AC35 was 4.37 µM.

For the molecule `CC1(C(=O)NCc2ccco2)Cc2c(-c3cccc(C(N)=O)c3)ccnc2O1` (stereo not drawn), the AC35 is 5.37 µM.

Consider `Cc1ccc2oc(/N=C(\N)NC(=O)C(C)(C)C)nc2c1`, for which the AC35 was 0.18 µM.

Regarding `CC(=O)c1ccc(N=C2C(=O)Nc3ccccc32)cc1`, the AC35 was 19.3 µM.

Take `CN(C[C@H]1N[C@@H](CO)[C@@H]1c1ccc(C2=CCCC2)cc1)C(=O)c1ccc(F)cc1`: the AC35 is 5.59 µM.

For `Cc1cc(C(=O)CN2C(=O)c3ccccc3S2(=O)=O)c(C)n1C(C)C`, the AC35 was 3.04 µM.

`O=C(O)c1ccc(N/N=C/c2cc(Br)cs2)cc1`: the AC35 was 7.22 µM.

As to `Cc1c(CCOC(=O)CC23CC4CC(CC(C)(C4)C2)C3)sc[n+]1CC(=O)c1ccccc1`, the AC35 is 16.9 µM.

Turning to `CCCCCCCN(c1ccccc1)[C@@H]1C[C@H]2CCCC(=O)N3CC[C@@H](C1)[C@@H]23`, the AC35 is 11.8 µM.

In the case of `C[C@H](CO)N1C[C@H](C)[C@H](CN(C)Cc2ccc(C(=O)Nc3ccccc3N)cc2)Oc2ccc(NS(=O)(=O)c3cccs3)cc2C1=O`, the AC35 is 11.6 µM.

As to `O=C(O)c1ccc(N/N=C/c2ccc(OC(=O)c3cccc(Cl)c3)cc2)cc1`, the AC35 is 7.06 µM.

In the case of `CC(C)(C)c1ccc(/C=N/Nc2ccc(C(=O)O)cc2)cc1`, the AC35 is 2.22 µM.

Turning to `C[C@@H]1CN([C@@H](C)CO)S(=O)(=O)c2ccc(C#Cc3ccncc3)cc2O[C@H]1CN(C)S(=O)(=O)c1ccccc1`, the AC35 is 15.2 µM.

For `CC(C)=CCC/C(C)=C/CN1C(=O)N(c2ccc(F)cc2)[C@H]2C[C@@H](c3ccccc3)[C@@H](C)[C@@H](C(=O)N3CCOCC3)C[C@H]21`, the AC35 was 7.8 µM.

For the molecule `COc1ccc(/C=C2\SC(=O)N(CCCC(=O)Nc3ccc(C(=O)O)cc3)C2=O)cc1`, the AC35 was 0.504 µM.

Consider `OCCN1CCN(C(=S)c2ccc(-c3ccccc3)cc2)CC1`, for which the AC35 is 1.94 µM.

With `C=C1C(=O)C=C[C@]2(C)C[C@@H]3OC(=O)[C@](C)(O)[C@H]3C[C@@H]12`, the AC35 was 10.7 µM.

On to `Cc1ccc2nc(-c3ccccc3)nn2c1`, for which the AC35 is 4.49 µM.

As to `C[C@H]1CN([C@@H](C)CO)S(=O)(=O)c2ccc(C#Cc3ccncc3)cc2O[C@@H]1CN(C)C(=O)Nc1ccc2c(c1)OCO2`, the AC35 is 10.1 µM.

For the molecule `C[C@@H]1CCCCO[C@H](CN(C)Cc2ccc(C(=O)Nc3ccccc3N)cc2)[C@@H](C)CN([C@H](C)CO)C(=O)c2cc(NS(=O)(=O)c3ccc(Cl)cc3)ccc2O1`, the AC35 is 5.04 µM.

For `N#C[C@H]1N[C@H](CO)[C@H]1c1ccc(C#Cc2ccccc2F)cc1`, the AC35 was 0.137 µM.

`CCCN1C(=O)/C(=C/c2nc3ccccc3c(=O)[nH]2)c2ccccc21`: the AC35 was 32.5 µM.

With `Cc1ccc(/C=C/C(=O)N2CCN(S(=O)(=O)c3c(C)c(C)cc(C)c3C)CC2)o1`, the AC35 was 49 µM.

With `C[C@H]1CN([C@@H](C)CO)C(=O)c2cccc(NC(=O)CCCCCC(=O)Nc3ccccc3N)c2O[C@@H]1CN(C)Cc1ccc2c(c1)OCO2`, the AC35 is 15.2 µM.
